Assay results as given in publication PMC7031696 (Cell chemical biology, 2019).
Like-named read-outs stand apart in the source and are kept apart here.

Columns and labels:
[1] = system: Plasmodium falciparum 3D7-A10 parasites; assay: Stage specificity assay (8-h exposure of synchronized stages, IC50^8h); assay type: cell-based; conditions: for IC50: Plasmodium falciparum
[2] = system: asynchronous 3D7-A10 parasite cultures; assay: Standard 72-h exposure asexual blood stage susceptibility assay (IC50^72h); assay type: cell-based, Plasmodium falciparum; conditions: Plasmodium falciparum, 3D7, 72 h, read-out: Overall (72hr assay) Mean IC50 (IC50^72h)
[3] = system: 3D7-MR4 trophozoite parasite-infected RBCs; assay: Metabolomic profiling (hydrophilic metabolite changes, UHPLC-MS); assay type: cell-based, Plasmodium falciparum
[4] = system: 3D7-A10 or Dd2-B2 parasites; conditions: 3 × IC50^72h drug concentrations; ref Phillips et al., 2015; cited from earlier work

O=C1C(O)=C([C@H]2CC[C@H](c3ccc(Cl)cc3)CC2)C(=O)c2ccccc21 [Atovaquone, reference compound]
overall activity profile (stages on which active) ([1]; 8-h exposures): activity against late trophozoites only
killing in stage specificity assay ([1]; 8-h exposures, survival curves): incomplete killing
IC50 ([1]; 3D7, read-out: Early rings Mean IC50, shift 2): 553 nM
IC50 ([1]; 3D7, read-out: Early trophozoites Mean IC50, shift 1): 0.68 nM
IC50 ([1]; 3D7, read-out: Early trophozoites Mean IC50, shift 2): 619 nM
IC50 ([1]; 3D7, read-out: Late rings Mean IC50, shift 2): 324 nM
IC50 ([1]; 3D7, read-out: Late trophozoites Mean IC50, shift 1): 3.7 nM
IC50 ([1]; 3D7, read-out: Schizonts IC50, shift 2): > 25000 nM
IC50 ([1]; 3D7, read-out: Schizonts Mean IC50, shift 1): 7.4 nM
shape of survival curve ([1]; early trophozoite and schizont stages): biphasic survival curve
Stage of peak activity (Figure 6) ([1]; period when the parasite was most susceptible (lowest IC50^8h)): late trophozoite stages
Peak Activity (Table S1) ([1]; stage(s) with the lowest IC50^8h): Late Trophs
IC50 [2]: 1.1 nM
Log2(fold change) Myristoyl/tetradecanoyl-CoA [3]: -0.0411
Log2(fold change) Octoluse 8/1P [3]: 0.0910
Log2(fold change) succinate/Methylmalonic acid [3]: -0.8517
Log2(fold change) succinyl-CoA/methylmalonyl-CoA [3]: -0.2938
Log2(fold change) threonine/homoserine [3]: 0.0177
metabolic signature: increases in the pyrimidine precursors dihydroorotate and N-carbamoyl-L-aspartate (mETC disruption) ([3]; 10 × IC50^72h, 2.5 hr, trophozoites): observed
Log2(fold changes) 3-phosphoglycerate ([3]; metabolite 3-phosphoglycerate, log2 fold change): -0.1329
Log2(fold changes) 4-Pyridoxic acid ([3]; metabolite 4-Pyridoxic acid, log2 fold change): 0.0014
Log2(fold changes) 4-aminobutyrate ([3]; metabolite 4-aminobutyrate, log2 fold change): 0.1923
Log2(fold changes) 4-phosphopantetheine ([3]; metabolite 4-phosphopantetheine, log2 fold change): 0.0048
Log2(fold changes) 4-phosphopantothenate ([3]; metabolite 4-phosphopantothenate, log2 fold change): -0.3512
Log2(fold changes) 5-aminopentanoic acid ([3]; metabolite 5-aminopentanoic acid, log2 fold change): -0.0149
Log2(fold changes) 5-methyl-THF ([3]; metabolite 5-methyl-THF, log2 fold change): -0.0146
Log2(fold changes) 5-phosphoribosyl-1-pyrophosphate ([3]; metabolite 5-phosphoribosyl-1-pyrophosphate, log2 fold change): -0.1198
Log2(fold changes) 6-phospho-D-gluconate ([3]; metabolite 6-phospho-D-gluconate, log2 fold change): 0.0051
Log2(fold change) HVDD ([3]; metabolite HVDD): 0.0262
Log2(fold change) Hydroxyisocaproic acid ([3]; metabolite Hydroxyisocaproic acid): -0.0150
Log2(fold change) IDP ([3]; metabolite IDP): 0.0185
Log2(fold change) IMP ([3]; metabolite IMP): 0.1599
Log2(fold change) Inositol ([3]; metabolite Inositol): 0.0000
Log2(fold change) Isopentyl-PP ([3]; metabolite Isopentyl-PP): -0.0191
Log2(fold change) L-arginino-succinate ([3]; metabolite L-arginino-succinate): 0.1909
Log2(fold change) LD ([3]; metabolite LD): 0.1960
Log2(fold change) N-Acetyl-L-alanine ([3]; metabolite N-Acetyl-L-alanine): -0.3227
Log2(fold change) N-acetyl-L-ornithine ([3]; metabolite N-acetyl-L-ornithine): 0.1921
Log2(fold change) N-acetyl-glucosamine-1/6-phosphate ([3]; metabolite N-acetyl-glucosamine-1/6-phosphate): 0.3531
Log2(fold change) N-acetyl-glutamate ([3]; metabolite N-acetyl-glutamate): 0.0422
Log2(fold change) N-acetyl-glutamine ([3]; metabolite N-acetyl-glutamine): -0.1228
Log2(fold change) N-carbamoyl-L-aspartate ([3]; metabolite N-carbamoyl-L-aspartate): 2.7565
Log2(fold change) NAD+ ([3]; metabolite NAD+): -0.0365
Log2(fold change) NADH ([3]; metabolite NADH): -0.0409
Log2(fold change) NADP+ ([3]; metabolite NADP+): 0.1141
Log2(fold change) NADPH ([3]; metabolite NADPH): -0.0085
Log2(fold change) O-acetyl-L-serine ([3]; metabolite O-acetyl-L-serine): 0.0000
Log2(fold change) Octoluse Bisphosphate ([3]; metabolite Octoluse Bisphosphate): -0.0867
Log2(fold change) PD ([3]; metabolite PD): 0.2066
Log2(fold change) PE ([3]; metabolite PE): 0.2833
Log2(fold change) PEE ([3]; metabolite PEE): 0.1525
Log2(fold change) PEEK ([3]; metabolite PEEK): 0.2544
Log2(fold change) PVNF ([3]; metabolite PVNF): -0.1256
Log2(fold change) Pyroglutamic acid ([3]; metabolite Pyroglutamic acid): -0.4514
Log2(fold change) Pyrophosphate ([3]; metabolite Pyrophosphate): -0.0311
Log2(fold change) Ribose-5-phosphate ([3]; metabolite Ribose-5-phosphate): -0.0776
Log2(fold change) S-adenosyl-L-homocysteine ([3]; metabolite S-adenosyl-L-homocysteine): -0.0546
Log2(fold change) S-adenosyl-L-methioninamine ([3]; metabolite S-adenosyl-L-methioninamine): 0.0342
Log2(fold change) S-adenosyl-L-methionine ([3]; metabolite S-adenosyl-L-methionine): 0.0000
Log2(fold change) S-methyl-5'-thioadenosine ([3]; metabolite S-methyl-5'-thioadenosine): 0.1207
Log2(fold change) SD ([3]; metabolite SD): 0.1611
Log2(fold change) SDL ([3]; metabolite SDL): 0.0455
Log2(fold change) SID ([3]; metabolite SID): 0.0448
Log2(fold change) Sedoheptulose bisphosphate ([3]; metabolite Sedoheptulose bisphosphate): -0.0991
Log2(fold change) Thiamine pyrophosphate ([3]; metabolite Thiamine pyrophosphate): 0.0203
Log2(fold changes) UDP-D-glucose ([3]; metabolite UDP-D-glucose, log2 fold change): 0.0102
Log2(fold changes) UDP-D-glucuronate ([3]; metabolite UDP-D-glucuronate, log2 fold change): -0.0044
Log2(fold changes) UDP-N-acetyl-glucosamine ([3]; metabolite UDP-N-acetyl-glucosamine, log2 fold change): -0.2854
Log2(fold changes) UDP ([3]; metabolite UDP, log2 fold change): -1.0636
Log2(fold changes) UMP ([3]; metabolite UMP, log2 fold change): -0.5975
Log2(fold changes) UTP ([3]; metabolite UTP, log2 fold change): -1.2395
Log2(fold change) hydroxyphenylpyruvate ([3]; metabolite hydroxyphenylpyruvate): 0.0147
Log2(fold change) hydroxyproline/Aminolevulinate ([3]; metabolite hydroxyproline/Aminolevulinate): -0.0689
Log2(fold change) hypoxanthine ([3]; metabolite hypoxanthine): -0.2575
Log2(fold change) indole ([3]; metabolite indole): -0.1736
Log2(fold change) inosine ([3]; metabolite inosine): -0.1123
Log2(fold change) isoleucine ([3]; metabolite isoleucine): -0.2949
Log2(fold change) lactate ([3]; metabolite lactate): -0.5142
Log2(fold change) leucine ([3]; metabolite leucine): -0.2842
Log2(fold change) lysine ([3]; metabolite lysine): 0.3188
Log2(fold change) malate ([3]; metabolite malate): -0.2336
Log2(fold change) maleic acid ([3]; metabolite maleic acid): -0.1204
Log2(fold change) methionine ([3]; metabolite methionine): -0.2848
Log2(fold change) myo-inositol ([3]; metabolite myo-inositol): -0.2098
Log2(fold change) nicotinamide mononucleotide ([3]; metabolite nicotinamide mononucleotide): -0.0768
Log2(fold change) nicotinate ([3]; metabolite nicotinate): -0.1572
Log2(fold change) ornithine ([3]; metabolite ornithine): 0.0045
Log2(fold change) orotate ([3]; metabolite orotate): 0.1233
Log2(fold change) orotidine-5'-phosphate ([3]; metabolite orotidine-5'-phosphate): -0.3697
Log2(fold change) oxaloacetate ([3]; metabolite oxaloacetate): -0.0126
Log2(fold change) p-aminobenzoate ([3]; metabolite p-aminobenzoate): -0.0050
Log2(fold change) p-hydroxybenzoate ([3]; metabolite p-hydroxybenzoate): 0.0562
Log2(fold change) pantothenate ([3]; metabolite pantothenate): -0.2044
Log2(fold change) phenylalanine ([3]; metabolite phenylalanine): -0.3684
Log2(fold change) phenylpyruvate ([3]; metabolite phenylpyruvate): 0.0000
Log2(fold change) phosphoenolpyruvate ([3]; metabolite phosphoenolpyruvate): -0.0614
Log2(fold change) prephenate ([3]; metabolite prephenate): -0.0378
Log2(fold change) proline ([3]; metabolite proline): -0.1933
Log2(fold change) pyridoxine ([3]; metabolite pyridoxine): -0.3758
Log2(fold change) pyruvate ([3]; metabolite pyruvate): -0.8812
Log2(fold change) riboflavin ([3]; metabolite riboflavin): -0.0986
Log2(fold change) ribose ([3]; metabolite ribose): -0.0745
Log2(fold change) ribose-phosphate ([3]; metabolite ribose-phosphate): -0.1162
Log2(fold change) ribulose-5-phosphate ([3]; metabolite ribulose-5-phosphate): -0.1031
Log2(fold change) serine ([3]; metabolite serine): 0.0478
Log2(fold change) sn-glycerol-3-phosphate ([3]; metabolite sn-glycerol-3-phosphate): 0.1848
Log2(fold change) taurine ([3]; metabolite taurine): 0.0315
Log2(fold change) thiamine ([3]; metabolite thiamine): -0.0450
Log2(fold change) thymidine ([3]; metabolite thymidine): -0.1873
Log2(fold changes) thymine ([3]; metabolite thymine, log2 fold change): 0.0000
Log2(fold changes) trehalose-6-Phosphate ([3]; metabolite trehalose-6-Phosphate, log2 fold change): 0.0905
Log2(fold changes) tryptophan ([3]; metabolite tryptophan, log2 fold change): -0.2480
Log2(fold changes) tyrosine ([3]; metabolite tyrosine, log2 fold change): -0.2052
Log2(fold changes) uridine ([3]; metabolite uridine, log2 fold change): -0.2906
minimum inoculum for resistance [4]: 2 × 10^7 parasites
